{
  "source": "paper PMC12657321",
  "about": "“Pre-clinical evaluation of a potent and effective Pin1-degrading agent in pancreatic cancer” (Molecular Therapy Oncology, 2025)",
  "key": {"[1]": {"biological_target": "Pin1 in BxPC3 cells (Homo sapiens, UniProt Q13526)", "sequence (Q13526 whole entry)": "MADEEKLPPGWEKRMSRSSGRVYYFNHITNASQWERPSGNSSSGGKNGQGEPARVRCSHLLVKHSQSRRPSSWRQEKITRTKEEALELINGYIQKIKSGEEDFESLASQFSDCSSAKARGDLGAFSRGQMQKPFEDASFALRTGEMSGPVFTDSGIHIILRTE", "assay": "Pin1 recovery after degradation, capillary electrophoresis immunoassay, BxPC3", "assay_type": "cell-based", "set-up": "endogenous in cells; host or cells: BxPC3", "conditions": "BxPC3, 5 μM for 24 h, washed, serum-free media, 48 h after wash; two independent replicates", "experimental": "To preliminarily assess the duration of Pin1 degradation in cancer cells, BxPC3 and KPC cells were treated with 164B8 for 24 h, washed, and then incubated in serum-free medium for various time points. Pin1 levels were then measured by capillary electrophoresis (Figure 3).\nFigure 3 Western blot-like images of Pin1 recovery after degradation by 164B8 using capillary electrophoresis immunoassay (A) BxPC3 cells were pretreated with either 0.1% DMSO or 5 μM 164B8 for 24 h before washing and incubating in serum-free media to evaluate Pin1 recovery at 0, 6, 12, 24, and 48 h. (B) The experiment was performed in two independent replicates, and the results are plotted with the associated standard deviation. (C and D), as in (A) and (B), respectively, but testing the agents against the KPC cell line.\nFor capillary electrophoresis immunoassays (Figure 3), following protein quantification via the bicinchoninic acid (BCA) assay, the Jess Simple Western instrument (Protein Simple, Bio-Techne, Minneapolis, MN, USA) was utilized according to the manufacturer’s protocol for the 12–230 kDa separation module (SM-W001, Bio-Techne). […] The resulting data were analyzed using Compass for Simple Western software (v.6.3.0), utilizing the default high dynamic range 4.0 image settings and Gaussian peak fitting to obtain the area under each curve for quantification and analysis."}, "[2]": {"system": "NSG mice", "assay": "Toxicity after repeated doses in NSG mice (CBC, observation)", "assay_type": "in vivo, mouse", "experimental": "Figure 6 Toxicity of 164B8 after repeated doses in NSG mice Blood from mice treated as described in Figure 5 was collected and evaluated at the end of the experiment. Peripheral blood from mice was collected and analyzed by standard complete blood count (CBC). (A) Body weight, (B) white blood cell (WBC) counts (×10^9 cells/L), (C) hemoglobin (HGB) concentration (g/dL), and (D) platelet counts (×10^9 cells/L, log scale) in peripheral blood were determined. Data are presented as individual values with mean ± SD. Dotted horizontal lines indicate physiological reference ranges. Statistical comparisons were performed using one-way AVOVA; p values are shown in each panel.\n(§1) Bioluminescent imaging (BLI) was performed one week post-inoculation. Based on imaging intensity, mice were re-grouped to ensure six animals per group. The PIN1 inhibitor was administered via intraperitoneal injection at doses of 30 mg/kg or 60 mg/kg, once daily, 5 days per week for 2 weeks. Tumor engraftment and growth were monitored by in vivo BLI. D-luciferin potassium salt was dissolved in sterile PBS to a final concentration of 16.6 mg/mL and mice were injected intraperitoneally with D-luciferin solution (0.139 g luciferin/kg body weight), then imaged 10–15 min after luciferin injection using an IVIS Spectrum Imaging System (Lago X) with identical exposure times and binning settings for all mice. Bioluminescence signal intensity was quantified as total flux (photons/s) within a region of interest (ROI) using Aura image software. BLI was performed once every week during the treatment. After 2 weeks of treatment, mice were euthanized 6 h after the final dose. Blood samples were collected via cardiac puncture, and normal peritoneum, intestine, and liver tissues were harvested and snap-frozen on dry ice."}, "[3]": {"assay": "164B8 concentration in tissues of treated mice by LC-MS", "assay_type": "in vivo, mouse", "conditions": "for 164B8 conc. (ng/mg) Predicted means (LS means) Adjacent Peritoneum / 164B8 conc. (ng/mg) Predicted means (LS means) Liver / 164B8 conc. (ng/mg) Predicted means (LS means) Tumor: 6 h after last dose, LC-MS, two-way ANOVA LS mean (Figure 7B)", "experimental": "To further verify that the observed activity was due to direct inhibition of Pin1 in vivo, we analyzed tumor tissues to measure 164B8 levels and Pin1 degradation in both tumor and normal tissues. At day 14, 6 h after the final intraperitoneal dose, 164B8 was detected and quantified in tumor tissue via liquid chromatography-mass spectrometry (LC-MS). Significant levels of 164B8 were detected in the liver, tumor-adjacent peritoneum, and tumor tissues collected from mice treated with either 30 mg/kg or 60 mg/kg (Figure 7A). The average tumor values were 0.62 ng/mg for mice treated with 30 mg/kg 164B8 and approximately 8 ng/mg for those treated with 60 mg/kg 164B8, compared with the vehicle control (0.03 ng/mg). In mice treated with 164B8 at 60 mg/kg, we observed enrichment of 164B8 in tumor tissues compared with adjacent normal tissues (mean: 3.65 vs. 8 ng/mg, p = 0.035) and normal liver tissues (mean: 0.75 vs. 8 ng/mg, p = 0.0003). For the 30 mg/kg dose, drug levels were numerically higher in tumor tissue (0.62 ng/mg) compared with adjacent normal peritoneum (0.11 ng/mg) and liver (0.10 ng/mg), although these differences were not statistically significant after adjustment for multiple comparisons (Figures 7A and 7B). Likewise, Pin1 levels in tumor tissues were detected via western blotting (Figure 7C).\nFigure 7 Determination of Pin1 levels and 164B8 concentration in treated mice Pin1 drug concentration and Pin1 levels in tumors were measured 6 h after the last dose of 164B8 treatment by LC-MS (A and B) and western blot (C), respectively. Drug concentrations among the three groups were compared using two-way ANOVA in Prism, accounting for interactions (D). Tukey’s multiple comparison test was used to compare multiple groups (∗∗∗p = 0.0003, ∗p = 0.035). Pin1 levels were compared among the three groups after normalizing to β-actin (loading control) using one-way ANOVA and adjusting for multiple comparisons (∗∗∗p < 0.001). TEXT PRINTED IN THE PICTURE: (B) 164B8: 164B8 conc. (ng/mg) Predicted means (LS means) Liver: 0.1017 (30mg/kg); 164B8 conc. (ng/mg) Predicted means (LS means) Adjacent Peritoneum: 0.1133 (30mg/kg); 164B8 conc. (ng/mg) Predicted means (LS means) Tumor: 0.6183 (30mg/kg); 164B8 conc. (ng/mg) Predicted means (LS means) Column means: 0.2778 (30mg/kg); 164B8 conc. (ng/mg) Predicted means (LS means) Liver: 0.7550 (60mg/kg); 164B8 conc. (ng/mg) Predicted means (LS means) Adjacent Peritoneum: 3.648 (60mg/kg); 164B8 conc. (ng/mg) Predicted means (LS means) Tumor: 8.005 (60mg/kg); 164B8 conc. (ng/mg) Predicted means (LS means) Column means: 4.136 (60mg/kg)\nas §1"}, "[4]": {"conditions": "30 mg/kg i.p. for 2 weeks, blood at end of experiment"}},
  "note": "Non-standard residues stand in square brackets, D forms with d. Residues, ends and D or L forms follow the SMILES beside them. *: point of attachment. Trp(6-Cl) = N[C@@H](Cc1c[nH]c2cc(Cl)ccc12)C(=O)O; Pip = O=C(O)[C@@H]1CCCCN1; ClAc = O=C(CCl)*",
  "data": [
    {"compound": "CNC(=O)[C@H](Cc1c[nH]c2ccccc12)NC(=O)[C@@H]1CCCCN1C(=O)[C@H](Cc1c[nH]c2cc(Cl)ccc12)NC(=O)CCl", "note": "[164B8] (ClAc-[Trp(6-Cl)]-[Pip]-Trp-NHMe)", "values": [
      {"measurement": "Pin1 levels restored after exposure and wash-out", "setting": "[1]", "value": "approximately 50%"},
      {"measurement": "Tolerability of repeated dosing", "setting": "[2]; 30 mg/kg i.p. for 2 weeks", "value": "generally well tolerated"},
      {"measurement": "Anemia (hemoglobin, CBC)", "setting": "[2]; [4]", "value": "mild anemia"},
      {"measurement": "Thrombocytopenia (platelet counts, CBC)", "setting": "[2]; [4]", "value": "moderate thrombocytopenia"},
      {"measurement": "Mice euthanized because of ascites development", "setting": "[2]; 60 mg/kg i.p. for 2 weeks, final time point, no obvious carcinomatosis", "value": "two of six mice"},
      {"measurement": "164B8 conc. (ng/mg) Predicted means (LS means) Adjacent Peritoneum", "setting": "[3]; 30mg/kg", "value": 0.1133, "unit": "ng/mg"},
      {"measurement": "164B8 conc. (ng/mg) Predicted means (LS means) Liver", "setting": "[3]; 30mg/kg", "value": 0.1017, "unit": "ng/mg"},
      {"measurement": "164B8 conc. (ng/mg) Predicted means (LS means) Tumor", "setting": "[3]; 30mg/kg", "value": 0.6183, "unit": "ng/mg"},
      {"measurement": "164B8 conc. (ng/mg) Predicted means (LS means) Adjacent Peritoneum", "setting": "[3]; 60mg/kg", "value": 3.648, "unit": "ng/mg"},
      {"measurement": "164B8 conc. (ng/mg) Predicted means (LS means) Liver", "setting": "[3]; 60mg/kg", "value": 0.7550, "unit": "ng/mg"},
      {"measurement": "164B8 conc. (ng/mg) Predicted means (LS means) Tumor", "setting": "[3]; 60mg/kg", "value": 8.005, "unit": "ng/mg"},
      {"measurement": "164B8 conc. (ng/mg) Predicted means (LS means) Column means", "setting": "[3]; 60mg/kg, mean over liver, adjacent peritoneum and tumor (Figure 7B)", "value": 4.136, "unit": "ng/mg"}
    ]}
  ]
}
